Results reported in patent US4596805A, “Substituted dioxopyridopyrimidines” (Ortho Pharmaceutical Corporation, priority 1984, dated 1986).

Tests used:
[1] = target: calcium channel antagonist receptors (rabbit heart) (Oryctolagus cuniculus, UniProt P15381); experiment: Nitrendipine Binding Assay (Test 1); set-up: species or system rabbit (female New Zealand white); conditions: 3H-nitrendipine (0.05-0.50 nM), rabbit heart membrane, 90 min at 4° C., pH 7.4; read-out: Test 1 (IC50): concentration required to achieve 50% displacement of specifically-bound nitrendipine
Chain of calcium channel antagonist receptors (rabbit heart) (P15381 whole entry, other chains not shown): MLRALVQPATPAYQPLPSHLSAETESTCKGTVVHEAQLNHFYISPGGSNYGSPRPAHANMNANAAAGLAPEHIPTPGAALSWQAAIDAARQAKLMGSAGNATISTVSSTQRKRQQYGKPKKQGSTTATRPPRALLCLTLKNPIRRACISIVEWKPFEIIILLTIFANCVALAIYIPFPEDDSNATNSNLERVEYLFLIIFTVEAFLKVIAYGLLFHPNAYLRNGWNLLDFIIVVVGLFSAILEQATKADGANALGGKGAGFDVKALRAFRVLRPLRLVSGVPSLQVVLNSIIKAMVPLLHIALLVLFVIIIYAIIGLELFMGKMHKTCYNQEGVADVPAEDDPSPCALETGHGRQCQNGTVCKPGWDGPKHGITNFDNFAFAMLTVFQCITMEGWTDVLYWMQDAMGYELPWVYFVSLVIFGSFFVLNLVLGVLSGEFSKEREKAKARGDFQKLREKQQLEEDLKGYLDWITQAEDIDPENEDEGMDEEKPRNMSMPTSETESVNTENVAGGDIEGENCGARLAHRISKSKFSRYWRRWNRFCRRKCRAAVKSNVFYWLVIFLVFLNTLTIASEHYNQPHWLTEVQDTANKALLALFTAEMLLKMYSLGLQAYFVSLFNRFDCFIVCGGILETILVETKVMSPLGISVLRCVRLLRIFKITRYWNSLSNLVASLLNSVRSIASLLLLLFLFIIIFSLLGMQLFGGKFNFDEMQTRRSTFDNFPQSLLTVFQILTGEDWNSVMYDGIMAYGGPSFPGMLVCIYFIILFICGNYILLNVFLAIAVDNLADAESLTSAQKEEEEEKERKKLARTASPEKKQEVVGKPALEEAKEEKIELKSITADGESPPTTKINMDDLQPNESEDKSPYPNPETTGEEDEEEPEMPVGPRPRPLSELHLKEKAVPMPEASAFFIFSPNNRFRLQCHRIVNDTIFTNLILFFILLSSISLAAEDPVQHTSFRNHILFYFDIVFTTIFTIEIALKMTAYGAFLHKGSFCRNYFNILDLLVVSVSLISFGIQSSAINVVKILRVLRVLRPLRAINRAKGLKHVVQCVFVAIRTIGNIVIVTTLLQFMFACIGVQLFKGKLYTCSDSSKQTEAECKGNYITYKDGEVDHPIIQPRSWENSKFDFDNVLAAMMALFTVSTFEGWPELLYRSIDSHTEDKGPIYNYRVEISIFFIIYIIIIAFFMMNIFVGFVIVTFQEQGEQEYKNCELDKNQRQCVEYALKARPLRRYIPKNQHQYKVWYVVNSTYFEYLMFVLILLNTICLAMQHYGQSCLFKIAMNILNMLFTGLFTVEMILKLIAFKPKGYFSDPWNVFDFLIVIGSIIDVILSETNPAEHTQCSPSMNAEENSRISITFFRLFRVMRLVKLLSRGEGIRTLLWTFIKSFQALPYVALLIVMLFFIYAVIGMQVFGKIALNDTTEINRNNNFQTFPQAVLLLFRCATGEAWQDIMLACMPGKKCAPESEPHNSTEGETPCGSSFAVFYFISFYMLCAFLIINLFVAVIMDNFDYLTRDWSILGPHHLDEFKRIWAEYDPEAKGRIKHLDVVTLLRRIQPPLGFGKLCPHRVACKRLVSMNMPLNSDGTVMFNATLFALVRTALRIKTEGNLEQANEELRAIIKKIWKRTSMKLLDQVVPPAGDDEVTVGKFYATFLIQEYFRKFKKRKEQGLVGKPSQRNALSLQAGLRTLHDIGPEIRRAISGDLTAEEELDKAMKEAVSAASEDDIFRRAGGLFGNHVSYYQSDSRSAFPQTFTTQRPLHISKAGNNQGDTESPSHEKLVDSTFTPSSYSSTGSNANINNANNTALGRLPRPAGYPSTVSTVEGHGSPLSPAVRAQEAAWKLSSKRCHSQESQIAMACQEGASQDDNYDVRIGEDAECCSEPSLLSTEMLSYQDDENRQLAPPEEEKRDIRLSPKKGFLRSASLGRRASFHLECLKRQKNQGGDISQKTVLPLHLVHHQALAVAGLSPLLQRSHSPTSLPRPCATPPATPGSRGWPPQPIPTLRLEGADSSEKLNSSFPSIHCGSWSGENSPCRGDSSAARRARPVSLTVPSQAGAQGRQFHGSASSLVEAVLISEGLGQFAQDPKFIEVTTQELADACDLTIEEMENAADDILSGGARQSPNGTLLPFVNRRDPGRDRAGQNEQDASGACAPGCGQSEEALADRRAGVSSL
Chain of calcium channel antagonist receptors (rabbit heart) (P13806 27-960 partner limits assumed, other chains not shown): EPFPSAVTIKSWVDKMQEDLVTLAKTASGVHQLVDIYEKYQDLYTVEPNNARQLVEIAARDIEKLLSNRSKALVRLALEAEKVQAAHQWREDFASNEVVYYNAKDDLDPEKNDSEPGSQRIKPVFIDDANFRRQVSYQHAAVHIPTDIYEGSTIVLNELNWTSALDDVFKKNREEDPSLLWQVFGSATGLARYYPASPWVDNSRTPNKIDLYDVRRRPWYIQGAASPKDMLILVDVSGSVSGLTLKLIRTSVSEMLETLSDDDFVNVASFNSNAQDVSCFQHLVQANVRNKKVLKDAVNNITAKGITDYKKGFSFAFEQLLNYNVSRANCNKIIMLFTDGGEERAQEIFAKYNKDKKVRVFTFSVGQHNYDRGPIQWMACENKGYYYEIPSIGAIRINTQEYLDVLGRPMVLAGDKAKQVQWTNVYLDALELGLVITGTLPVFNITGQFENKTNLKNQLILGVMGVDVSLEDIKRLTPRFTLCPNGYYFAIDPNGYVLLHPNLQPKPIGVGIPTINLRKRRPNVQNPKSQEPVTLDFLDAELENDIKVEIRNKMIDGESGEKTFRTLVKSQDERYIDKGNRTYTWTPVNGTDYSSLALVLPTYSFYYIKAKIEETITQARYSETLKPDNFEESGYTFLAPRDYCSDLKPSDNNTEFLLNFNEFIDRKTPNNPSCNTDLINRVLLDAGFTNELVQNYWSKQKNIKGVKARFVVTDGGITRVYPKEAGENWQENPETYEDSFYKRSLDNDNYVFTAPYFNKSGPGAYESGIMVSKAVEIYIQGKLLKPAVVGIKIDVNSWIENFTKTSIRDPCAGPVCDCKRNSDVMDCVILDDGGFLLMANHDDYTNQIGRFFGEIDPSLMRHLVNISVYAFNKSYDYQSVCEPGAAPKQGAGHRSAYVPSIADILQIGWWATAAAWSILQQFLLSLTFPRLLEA
Chain of calcium channel antagonist receptors (rabbit heart) (P13806 961-1106 partner limits assumed, other chains not shown): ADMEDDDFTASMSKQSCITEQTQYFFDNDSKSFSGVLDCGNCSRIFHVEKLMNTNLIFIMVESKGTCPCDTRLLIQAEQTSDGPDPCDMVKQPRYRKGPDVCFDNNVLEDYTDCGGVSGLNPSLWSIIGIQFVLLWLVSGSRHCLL

[2] = tested on: vascular smooth muscle tissue from the rabbit aorta; experiment: Rabbit Potassium Depolarized Blood Vessel Test (Test 2); type: cell-based; conditions: Oryctolagus cuniculus, 10 min; test compound 10^-6 M, 10 minute exposure, 30 mM potassium chloride, rabbit aorta strips, 37° C.; read-out: Test 2 (% Inhibition) of potassium-induced contraction
Text: This tissue can be made to contract when exposed to a depolarizing solution containing an elevated potassium ion concentration and normal amounts of calcium ions. A test compound added to the solution produces a dose-dependent relaxation of the contracted rabbit aortic tissue which gives an indication of calcium antagonist activity of the test compound. This test is described below as the "Rabbit Potassium Depolarized Blood Vessel Test".
In the Rabbit Potassium Depolarized Blood Vessel Test, rabbits are killed by cervical dislocation, and the thoracic aorta is removed. Helical strips, approximately 30-40 mm in length, are cut from the aorta and are suspended in tissue baths of oxygenated Krebs bicarbonate buffer at 37° C. under a resting tension of 4 g. After an equilibration period of approximately 1-2 hours, the strips are challenged with a 30 mM potassium chloride solution and the peak contraction is measured. Following measurement of the peak contraction, the strips are washed and re-equilibrated for an hour in oxygenated Krebs bicarbonate buffer. After the re-equilibration of the aorta strips, the test compound was added to the bath at a concentration of 10-^6 M and the strips were allowed to stand for 10 minutes. After the 10 minute exposure to the test compound, the tissue strips were rechallenged with 30 mM potassium chloride solution and the maximum contraction was measured. The specificity of any inhibition of contraction is determined by addition of 10 mM phenylephrine.
The percent inhibition of contraction is calculated from the formula: […]
where CT is the peak contraction in the presence of the test compound and Cc is the peak contraction without test compound.
Test results for exemplary compounds of Formula I are provided in Table I below, in which the Rabbit Potassium Depolarized Blood Vessel Test is called "Test 2", the Nitrendipine Binding Assay is called "Test 1" and the Spontaneously Hypertensive Rat test is called "Test 3".

[3] = tested on: spontaneously hypertensive rats; experiment: Spontaneously Hypertensive Rat Test (Test 3); type: in vivo; conditions: 100 mg/kg body weight, four male spontaneously hypertensive rats, indirect tail-cuff method
Description: Alternatively, one may evaluate the calcium antagonist activity of a test compound by measuring the displacement of nitrendipine to calcium channel antagonist receptors by the test compound according to the methods of Bolger, et al., Biochem. Biophys. Res. Comm., 104(4), 1604-1609 (1982) and Ehlert, et al., Life Sciences, 30, 2191-2202 (1982). In such a test, the amount of specifically-bound nitrendipine to rabbit heart is determined in the presence and absence of test compound. The percent nitrendipine displacement is directly related to the efficacy of the test compound as a calcium antagonist. This assay is described below as the "Nitrendipine Binding Assay". […] Circ. J., 270, 282 (1963). The general techniques for conducting such tests are disclosed in B. Vagnovsky "Automatic Blood-Pressure Measurements in Small Animals", American Laboratory, April, 1973, and "Techniques for the Measurement of Blood Pressure", Institute of Laboratory Animal Resouces NEWS, Vol. XIX (3), G 11-12, Spring, 1976. In this test a group of four male spontaneously hypertensive rats having systolic blood pressures greater than 150 mm Hg are used for each test compound. Systolic blood pressure is measured by the indirect method using a tail-cuff. The compounds are administered at a dose of 100 mg/kg body weight, and the average of the peak decrease in blood pressure is calculated for the four rats. Test results for exemplary compounds of Formula I are provided in Table I below, in which the Rabbit Potassium Depolarized Blood Vessel Test is called "Test 2", the Nitrendipine Binding Assay is called "Test 1" and the Spontaneously Hypertensive Rat test is called "Test 3".

| IC50 [1] | Compound | inhibition at 1 µM [2] | Test 3 (mmHg, 100 mpk): average of the peak decrease in systolic blood pressure [3] |
| --- | --- | --- | --- |
| 2 µM | CC1=C(C(=O)OCCN(C)Cc2ccccc2)C(C2CCCCC2)c2c(n(C)c(=O)n(C)c2=O)N1 (stereo not shown) [XVII] | 18% | -30 mmHg |
| 0.078 µM | CC1=C(C(=O)OCCBr)C(c2cccc(Cl)c2)c2c(n(C)c(=O)n(C)c2=O)N1 (stereo not shown) [XXIII] | 54% | -16 mmHg |
| 1 µM | CC1=C(C(=O)OCCN(C)Cc2ccccc2)C(c2ccccc2Cl)c2c(n(C)c(=O)n(C)c2=O)N1 (stereo not shown) [XIV] | 50% | -40 mmHg |
| 2 µM | CC1=C(C(=O)OCCN(C)Cc2ccccc2)C(c2ccco2)c2c(n(C)c(=O)n(C)c2=O)N1 (single isomer, unassigned) [Example XVI, 2-(N-benzyl-N-methylamino)ethyl-5-(furan-2-yl)-5,8-dihydro-1,3,7-trimethyl-2,4-dioxopyrido [2,3-d]pyrimidine-6-carboxylate] |  |  |
| 1.3 µM | CC1=C(C(=O)OCCN(C)Cc2ccccc2)C(c2ccccc2)c2c(n(C)c(=O)n(C)c2=O)N1 (stereo not shown) [XI] | 12% | -28 mmHg |
| 2.3 µM | CC1=C(C(=O)OCCN(C)Cc2ccccc2)C(c2ccc(C(F)(F)F)cc2)c2c(n(C)c(=O)n(C)c2=O)N1 (stereo not shown) [XXI] | 6% | -16 mmHg |
| 3.4 µM | CC1=C(C(=O)OCCN(C)Cc2ccccc2)C(c2cccc(C(F)(F)F)c2)c2c(n(C)c(=O)n(C)c2=O)N1 (stereo not shown) [XVIII] | 33% | -37 mmHg |
| 0.5 µM | CC1=C(C(=O)OCCN(C)Cc2ccccc2)C(c2cccc(F)c2)c2c(n(C)c(=O)n(C)c2=O)N1 (stereo not shown) [VIII] | 48% | -47 mmHg |
| 2.5 µM | CC1=C(C(=O)OCCN(C)Cc2ccccc2)C(c2ccccc2[N+](=O)[O-])c2c(n(C)c(=O)n(C)c2=O)N1 (stereo not shown) [XII] | 27% | -16 mmHg |
| 1.1 µM | CC1=C(C(=O)OCCBr)C(c2cccc(C(F)(F)F)c2)c2c(n(C)c(=O)n(C)c2=O)N1 (stereo not shown) [XXV] | 41% |  |
| > 1 µM | CC1=C(C(=O)OCCN(C)Cc2ccccc2)C(c2cccc(Cl)c2)c2c([nH]c(=S)[nH]c2=O)N1 (stereo not shown) [XX] |  | -16 mmHg |
| 0.89 µM | CC1=C(C(=O)OCCF)C(c2cccc(Cl)c2)c2c(n(C)c(=O)n(C)c2=O)N1 (stereo not shown) [XXVI] |  |  |
| 100 µM | COC(=O)C1=C(C)Nc2c(c(=O)n(C)c(=O)n2C)C1c1ccco1 (stereo not shown) [Example XV] |  | -22 mmHg |
| 8 µM | CC1=C(C(=O)OCCN(C)Cc2ccccc2)C(c2cccc(Cl)c2)c2c([nH]c(=O)[nH]c2=O)N1 (stereo not shown) [VII] |  |  |
| 2.8 µM | COc1cccc(C2C(C(=O)OCCN(C)Cc3ccccc3)=C(C)Nc3c2c(=O)n(C)c(=O)n3C)c1 (stereo not shown) [IX] | 8% | -57 mmHg |
| 0.109 µM | CC1=C(C(=O)OCCBr)C(c2cccc([N+](=O)[O-])c2)c2c(n(C)c(=O)n(C)c2=O)N1 (stereo not shown) [XXIV] | 26% | -10 mmHg |
| 1 µM | COC(=O)C1=C(C)Nc2c(c(=O)n(C)c(=O)n2C)C1c1cccc(Cl)c1 (stereo not shown) [Example II, Methyl 5-(3-Chlorophenyl)-5,8-dihydro-1,3,7-trimethyl-2,4-dioxopyrido[2,3-d]pyrimidine-6-carboxylate] | 3% | -31 mmHg |
| 0.175 µM | CC1=C(C(=O)OCCBr)C(c2ccccc2Cl)c2c(n(C)c(=O)n(C)c2=O)N1 (stereo not shown) [XXVIII] | 23% |  |
| 7.7 µM | CC1=C(C(=O)OCCN(C)Cc2ccccc2)C(c2cccc([N+](=O)[O-])c2)c2c([nH]c(=O)[nH]c2=O)N1 (stereo not shown) [XXII] |  | -11 mmHg |
| 2.3 µM | CC1=C(C(=O)OCCN(C)Cc2ccccc2)C(c2cc(Cl)cc(Cl)c2)c2c(n(C)c(=O)n(C)c2=O)N1 (stereo not shown) [XIX] | 28% | -37 mmHg |
| 0.86 µM | CC1=C(C(=O)OCC(F)(F)F)C(c2cccc(Cl)c2)c2c(n(C)c(=O)n(C)c2=O)N1 (stereo not shown) [XXVII] |  |  |
| 3.2 µM | CC1=C(C(=O)OCCN(C)Cc2ccccc2)C(c2cccc(C)c2)c2c(n(C)c(=O)n(C)c2=O)N1 (stereo not shown) [Example X] | 16% | -12 mmHg |
| 0.65 µM | CC1=C(C(=O)OCCN(C)Cc2ccccc2)C(c2cccc(C#N)c2)c2c(n(C)c(=O)n(C)c2=O)N1 (stereo not shown) [V] | 26% | -31 mmHg |
| 0.1 µM | CC1=C(C(=O)OCCN(C)Cc2ccccc2)C(c2cccc(Cl)c2)c2c(n(C)c(=O)n(C)c2=O)N1 (stereo not shown) [VI, 2-(N-benzyl-N-methylaminoethyl) 5-(3-chlorophenyl)-5,8-dihydro-1,3,7-trimethyl-2,4-dioxopyrido[2,3-d]pyrimidine-6-carboxylate] | 52% | -50 mmHg |
| 0.385 µM | CC1=C(C(=O)OCCCBr)C(c2cccc(Cl)c2)c2c(n(C)c(=O)n(C)c2=O)N1 (stereo not shown) [XXIX] | 44% |  |
| 0.23 µM | CC1=C(C(=O)OCCN(C)Cc2ccccc2)C(c2cccc([N+](=O)[O-])c2)c2c(n(C)c(=O)n(C)c2=O)N1 (stereo not shown) [IV] | 44% | -28 mmHg |
|  | CC1=C(C(=O)OCCN(C)Cc2ccccc2)C(c2ccccc2[N+](=O)[O-])c2c(n(C)c(=O)n(C)c2=O)N1 (stereo not shown) [XIII] |  | -35 mmHg |
| 0.3 µM | COC(=O)C1=C(C)Nc2c(c(=O)n(C)c(=O)n2C)C1c1cccc([N+](=O)[O-])c1 (stereo not shown) [Example I, Methyl 5,8-Dihydro-1,3,7-trimethyl-5-(3-nitrophenyl)-2,4-dioxopyrido[2,3-d]pyrimidine-6-carboxylate] | 54% | -11 mmHg |
| 6 µM | CC1=C(C(=O)OCCN(C)Cc2ccccc2)C(c2ccco2)c2c(n(C)c(=O)n(C)c2=O)N1.Cl.O (single isomer, unassigned) [Example III, 2-(N-Benzyl-N-methylamino)ethyl 5-(Furan-2-yl)-5,8-dihydro-1,3,7-trimethyl-2,4-dioxopyrido[2,3-d]pyrimidine-6-carboxylate Monohydrochloride Monohydrate] |  | -22 mmHg |
